Measured values reported in US11873298B2, “Compounds and uses thereof” (JANSSEN PHARMACEUTICA NV, priority 2017, dated 2024).

Legend:
SCD1 = biological target: T1, SCD1 (Homo sapiens, UniProt O00767); test: Growth inhibition of humanized yeast strain expressing SCD1 as sole desaturase; assay type: cell-based
T1 construct: host or cells: S. cerevisiae ole1Δ strain (W303 pdr1Δ pdr3Δ background), plasmid pRS316 with TDH3 promoter and CYC1 terminator
T1 sequence (O00767 1-359): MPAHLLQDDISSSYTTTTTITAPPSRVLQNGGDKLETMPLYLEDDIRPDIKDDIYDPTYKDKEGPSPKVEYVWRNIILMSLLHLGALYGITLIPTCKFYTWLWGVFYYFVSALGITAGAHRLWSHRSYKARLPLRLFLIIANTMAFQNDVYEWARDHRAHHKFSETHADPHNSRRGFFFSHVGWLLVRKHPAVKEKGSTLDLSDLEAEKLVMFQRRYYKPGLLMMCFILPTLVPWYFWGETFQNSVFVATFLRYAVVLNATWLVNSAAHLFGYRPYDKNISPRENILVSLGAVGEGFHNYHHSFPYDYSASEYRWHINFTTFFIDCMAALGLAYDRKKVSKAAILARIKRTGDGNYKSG
Summary of the method: (§1)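 Measured by optical density at 600 nm, growth of desaturase-dependent yeast (OLE1 deleted; human SCD1, human SCD5 or yeast Ole1 supplied from plasmid) was scored after 24 h (Ole1) or 40 h (SCD1, SCD5) at 30° C. in galactose media lacking uracil with DMSO-delivered compound.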

SCD5 = biological target: T2, SCD5 (Homo sapiens, UniProt Q86SK9); test: Growth inhibition of humanized yeast strain expressing SCD5 as sole desaturase; assay type: cell-based
T2 construct: host or cells: S. cerevisiae ole1Δ strain (W303 pdr1Δ pdr3Δ background), plasmid pRS316 with TDH3 promoter and CYC1 terminator
T2 sequence (Q86SK9 1-330): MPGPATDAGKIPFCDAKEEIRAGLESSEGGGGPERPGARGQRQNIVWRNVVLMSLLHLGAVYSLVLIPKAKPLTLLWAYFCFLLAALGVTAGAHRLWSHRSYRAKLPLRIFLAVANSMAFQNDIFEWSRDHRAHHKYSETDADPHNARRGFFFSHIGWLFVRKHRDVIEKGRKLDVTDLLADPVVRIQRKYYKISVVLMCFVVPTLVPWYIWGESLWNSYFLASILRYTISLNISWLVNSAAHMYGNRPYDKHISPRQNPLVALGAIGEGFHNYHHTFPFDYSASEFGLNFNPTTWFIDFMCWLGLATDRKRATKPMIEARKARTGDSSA
Summary of the method: as §1

[1] = humanized yeast strain expressing SCD1
[2] = humanized yeast strain expressing SCD5
[3] = growth inhibition of humanized yeast strain expressing human SCD1
[4] = growth inhibition of humanized yeast strain expressing human SCD5

| SMILES | IC50 (SCD1; humanized yeast strain, 40 h) [µM] | IC50 (SCD5; humanized yeast strain, 40 h) [µM] | also measured |
| --- | --- | --- | --- |
| CC(C)n1ncc2ccc(-c3noc(C4CCN(S(=O)(=O)C5CCCCC5)CC4)n3)cc21 [Compound 516] |  |  | IC50 (SCD1; [1]): > 45 µM; IC50 (SCD5; [2]): > 45 µM |
| CC(C)n1ncc2ccc(-c3noc(N4CCC(C5COC5)CC4)n3)cc21 [Compound 743] |  |  | IC50 (SCD1; [3]): > 45 µM; IC50 (SCD5; [4]): 14.8 µM |
| CC(C)(C)OC(=O)N1CCC(c2noc(N3CCc4nn(C5COC5)cc4C3)n2)CC1 [Compound 1172] | ≥ 45 | 9.89 |  |
| COC(=O)N1CCC(c2nc(-c3ccc4cnn(C5CN(C(=O)OC(C)(C)C)C5)c4c3)no2)CC1 [Compound 951] | > 45 | > 45 |  |
| CC(C)n1ncc2ccc(-c3nc(C4CCN(C(=O)c5ncccc5F)CC4)no3)cc21 [Compound 714] |  |  | IC50 (SCD1; [3]): > 45 µM; IC50 (SCD5; [4]): 0.23 µM |
| CC(C)(C)OC(=O)N1CCN(c2noc(-c3cccc(C4CCOC4)c3)n2)CC1 (stereo not drawn) [Compound 778] | > 45 | 0.012 |  |
| CC(N1CCC(c2nc(-c3ccc4cnn(C5COC5)c4c3)no2)CC1)C(F)(F)F (stereo not drawn) [Compound 1091] | > 45 | 3.62 |  |
| COC1(C(=O)N2CCC(c3noc(-c4ccc5cnn(C(C)C)c5c4)n3)CC2)CC1 [Compound 799] | > 45 | 0.01 |  |
| CC(CF)n1ncc2ccc(-c3noc(C4CCN(C(=O)OC5(C)CC5)CC4)n3)cc21 (stereo not drawn) [Compound 607] |  |  | IC50 (SCD1; [3]): > 45 µM; IC50 (SCD5; [4]): 0.511 µM |
| C=C(F)/C=C/n1cc2ccc(-c3noc(C4CCN(C(=O)OC(C)(C)C)CC4)n3)cc2n1 [Compound 739] |  |  | IC50 (SCD1; [3]): > 45 µM; IC50 (SCD5; [4]): > 45 µM |
| CC(C)n1ncc2ccc(-c3noc(C4CCN(C(=O)C5(O)CC5)CC4)n3)cc21 [Compound 779] | > 45 | 15.3 |  |
| CC(C)n1ncc2ccc(N3CC4(CCN(C(=O)OC(C)(C)C)CC4)OC3=O)cc21 [Compound 515] |  |  | IC50 (SCD1; [1]): 16.5 µM; IC50 (SCD5; [2]): > 45 µM |
| CC(C)n1ncc2ccc(-c3nc(C4CN(C(=O)CC(C)(C)C)C4)no3)cc21 [Compound 606] |  |  | IC50 (SCD1; [3]): > 45 µM; IC50 (SCD5; [4]): 0.737 µM |
| CC(C)C(=O)N1CC[C@@H](c2noc(-c3ccc4cnn(C5COC5)c4c3)n2)C[C@@H]1C [Compound 1055] | > 45 | 0.00488 |  |
| CC(C)n1nc(CCN(C)C)c2ccc(-c3noc(C4CCN(C(=O)OC(C)(C)C)CC4)n3)cc21 [Compound 759] | > 45 | > 45 |  |
| CC(C)(C)OC(=O)N1CCC(c2nc(-c3ccc4cnn([C@H]5C[C@@H](O)C5)c4c3)no2)CC1 [Compound 822] | > 45 | 0.111 |  |
| CC(C)C(=O)N1CCN(c2noc(-c3ccnc(Cl)c3)n2)CC1 [Compound 1119] | > 45 | > 45 |  |
| COC(=O)N1CCC(c2cc(-c3ccc4cnn(C5COC5)c4c3)on2)CC1 [Compound 1027] | > 45 | 3.16 |  |
| CC(C)(C)OC(=O)N1C[C@@H]2[C@H](C1)[C@H]2C(=O)NCc1ccc(Cl)cc1 [Compound 773] | > 45 | 21.5 |  |
| CC(C)(C)OC(=O)N1C[C@@H]2[C@H](C1)[C@H]2C(=O)NCc1cccc(C#N)c1 [Compound 772] | > 45 | > 45 |  |
| CC(C)C(=O)N1CCN(c2noc(-c3ccnc(NC4COC4)c3)n2)CC1 [Compound 1133] | > 45 | > 45 |  |
| COC1(C(=O)N2CCN(c3noc(-c4ccc5cnn(C(C)C)c5c4)n3)CC2)CC1 [Compound 889] | 13.3 | 1.9 |  |
| CC(=O)N1CC(CC(=O)N2CCC(c3nc(-c4ccc5c(C)nn(C)c5c4)no3)CC2)C1 [Compound 638] |  |  | IC50 (SCD1; [3]): > 45 µM; IC50 (SCD5; [4]): > 45 µM |
| COC(=O)N1CC(c2noc(-c3ccc4cnn(C5COC5)c4c3)n2)C1 [Compound 928] | > 45 | 0.01 |  |

| SMILES | IC50 (SCD1; humanized yeast strain, 40 h) [µM] | IC50 (SCD5; humanized yeast strain, 40 h) [µM] | also measured |
| --- | --- | --- | --- |
| O=C(C1CC1)N1CCC(c2noc(-c3ccnc(NC4COC4)c3)n2)CC1 [Compound 1115] | > 45 | 10.6 |  |
| CC(C)(C)OC(=O)N1CCC(c2nc(-c3ccc4c(c3)N(C3COC3)C(=O)CC4)no2)CC1 [Compound 662] |  |  | IC50 (SCD1; [3]): > 45 µM; IC50 (SCD5; [4]): > 45 µM |
| CC1(OC(=O)N2CCC(c3nc(-c4ccc5cnn(C6CCOC6)c5c4)no3)CC2)CC1 (stereo not drawn) [Compound 777] | 4.16 | 0.01 |  |
| CC(C)(C)CC(=O)N1CC(c2nc(-c3ccc4cnn(C5COC5)c4c3)no2)C1 [Compound 707] |  |  | IC50 (SCD1; [3]): > 45 µM; IC50 (SCD5; [4]): 14.5 µM |
| CC(C)n1ncc2ccc(-c3noc(C4CCN(C(=O)CNC(=O)c5ccc(F)cc5)CC4(F)F)n3)cc21 (stereo not drawn) [Compound 681] |  |  | IC50 (SCD1; [3]): > 45 µM; IC50 (SCD5; [4]): > 45 µM |
| CC(C)(C)OC(=O)N1C[C@@H]2[C@H](C1)[C@H]2C(=O)NCc1ccncc1 [Compound 768] | > 45 | > 45 |  |
| CC(C)n1ncc2c1CN(c1noc(C3CCN(C(=O)OC(C)(C)C)CC3)n1)CC2 [Compound 827] | > 45 | > 45 |  |
| CC(C)(C)OC(=O)N1CCC(c2nc(-c3ccc4cnn(CC5CCNC5=O)c4c3)no2)CC1 (stereo not drawn) [Compound 645] |  |  | IC50 (SCD1; [3]): 17.9 µM; IC50 (SCD5; [4]): 4.47 µM |
| COC(=O)N1CCN(c2nc(-c3ccc4cnn(C(C)C)c4c3)no2)CC1 [Compound 356] |  |  | SCD1 % Max Inhibition (SCD1; [1]): 51.18%; IC50 (SCD5; [2]): > 45 µM; SCD5 % Max Inhibition (SCD5; [2]): 2.88% |
| COC(=O)N1CCC(c2nc(-c3ccc4c(c3)N(C(C)C)C(=O)C4)no2)CC1 [Compound 627] |  |  | IC50 (SCD1; [3]): > 45 µM; IC50 (SCD5; [4]): 6.69 µM |
| O=C(C1CC1)N1CCC(c2noc(-c3ccc4oc(=O)n(C5COC5)c4c3)n2)CC1 [Compound 1135] | > 45 | 0.188 |  |
| CCOC(=O)N1CCN(c2nc(-c3ccc4cnn(C(C)C)c4c3)no2)CC1 [Compound 668] |  |  | IC50 (SCD1; [3]): > 45 µM; IC50 (SCD5; [4]): 0.719 µM |
| COC(=O)N1CCC(c2nc(-c3ccc4cnn(C(C)C)c4c3)no2)CC1 [Compound 355] |  |  | SCD1 % Max Inhibition (SCD1; [1]): 71.31%; IC50 (SCD5; [2]): > 45 µM; SCD5 % Max Inhibition (SCD5; [2]): 3.68% |
| Cn1cc(-c2cc(-c3nc(C4CCN(C(=O)OC5(C)CC5)CC4)no3)ccn2)cn1 [Compound 1186] | 10 | 6.08 |  |
| CC(=O)N1CC(n2ncc3ccc(-c4nc(N5CCN(C(=O)OC(C)(C)C)CC5)no4)cc32)C1 [Compound 915] | > 45 | 10.1 |  |
| CC(=O)N1CC(n2cc3ccc(-c4nc(N5CCN(C(=O)OC(C)(C)C)CC5)no4)cc3n2)C1 [Compound 914] | > 45 | 6.17 |  |
| COC(=O)N1CCC(c2nc(-c3ccc4cn[nH]c4c3)no2)CC1 [Compound 936] | > 45 | 3.45 |  |
| COC(=O)N1CCC(c2nc(-c3ccc4cnc(C5COC5)n4c3)no2)CC1 [Compound 900] | > 45 | 13.1 |  |
| CC(C)(C)OC(=O)N1CCN(c2nc(-c3ccc4cn(C5CCC5)nc4c3)no2)CC1 [Compound 729] |  |  | IC50 (SCD1; [3]): > 45 µM; IC50 (SCD5; [4]): > 45 µM |
| COC(=O)N1CCC(c2noc(-c3cc4c(cnn4C4COC4)cc3F)n2)CC1 [Compound 944] | > 45 | 2.22 |  |
| COC(=O)N1CCC(c2noc(-c3cnc4cnn(C5COC5)c4c3)n2)CC1 [Compound 1052] | > 45 | 0.253 |  |
| Cc1nn(C)c2cc(-c3noc(C4CCN(C(=O)[C@@H]5CC(=O)N(c6cccc(C#N)c6)C5)CC4(F)F)n3)ccc12 (stereo partly drawn) [Compound 648] |  |  | IC50 (SCD1; [3]): > 45 µM; IC50 (SCD5; [4]): > 45 µM |
| COC(=O)N1CCC(c2noc(-c3cc(F)c4cnn(C5CCOC5)c4c3)n2)CC1 (stereo not drawn) [Compound 1073] | 8.36 | 0.00252 |  |
